Drawing on ChEMBL document CHEMBL1157457, “Alstilobanines A-E, new indole alkaloids from Alstonia angustiloba” (2008), this text covers Activity for 8 compounds.

The test system of the experiment is Aorta. Description: Vasorelaxation activity against phenylephrine-stimulated contraction in Wistar rat thoracic aorta at 30 uM. Further details: scale not given: the % may be the effect or the level left. In kind it is functional.
For `COC(=O)[C@@]12COCC[C@@H]3[C@@H](NCC[C@@H]31)c1c2[nH]c2ccccc12` [ALSTILOBANINE C], the Activity amounted to 28%. In the case of `COC(=O)[C@@]1(c2cc3ccccc3[nH]2)COCC=C2C[N@+](C)([O-])CC[C@@H]21` [ALSTILOBANINE D], the Activity is given as 10%. The value for `O=C(O)[C@@]12COCC=C3CN(CC[C@@H]31)Cc1c2[nH]c2ccccc12` [ALSTONAMIC ACID] was 35%. Consider `COC(=O)[C@@]12COC[C@H](c3c1[nH]c1ccccc31)[C@]1(O)CNCC[C@@H]12` [ALSTILOBANINE E], for which the Activity worked out at 6.8%. The value for `COC(=O)[C@@]1(c2cc3ccccc3[nH]2)COCC=C2CN(C)CC[C@@H]21` [6,7-SECO-ANGUSTILOBINE B] was 7%. The result for `COC(=O)[C@@]12COCC[C@H]3[C@@H]1CC[N@@+](C)([O-])[C@H]3c1c2[nH]c2ccccc12` [ALSTILOBANINE B] reads 21.2%; that for `COC(=O)[C@]1(CO)c2[nH]c3ccccc3c2[C@@H](C)[C@]2(O)CNCC[C@@H]21` [ALSTILOBANINE A], 44.3%. The compound `COC(=O)[C@]12COCC[C@@H]3[C@H](c4c1[nH]c1ccccc41)N(C)CC[C@@H]32` [UNDULIFOLINE] showed an Activity of 33.3%.
